This is an account of results in patent publication US20090062403A1, “Compositions and Methods for Treatment of Disorders of Protein Aggregation” (priority 2004, published 2009).

Entries after “also recorded” stand apart in the source; their conditions may differ. Marks after values point to notes of the source that are not given here.

Series [1] concerns synaptophysin. Nature of the series: Synaptophysin quantification in CA1 region of the hippocampus. Type of series: in vivo, mouse. Particulars: TgCRND8 mice; for increase of synaptophysin reactive boutons and cell bodies: vs untreated. The protocol:
Synaptophysin immunohistochemical staining was performed on 3 evenly spaced saggital sections of paraformaldehyde-fixed treated and control mice. Sections were immunolabelled for synaptophysin with anti-synaptophysin IgG (1:40; Roche, Laval, PQ). Digital images were captured and analyzed as described above. Within each section, three randomly chosen 100 μm^2 areas of the CA1 region of the hippocampus were counted for synaptophysin reactive cell bodies and boutons. The results are expressed as the mean of the number of reactive bodies and boutons per 100 μm^2 [48, 49].

Series [2] has as its system Aβ oligomers. Nature of the series: IP/Western blot of Aβ oligomers in 7PA2 conditioned media. Type of series: cell-based, human. How it is done: (§1) Preparation of conditioned media: CHO— or 7PA2 cells were grown to ˜90% confluency. The cells were washed 1× in serum-free DMEM, then incubated overnight (˜15 hrs) in 4 ml/10 cm dish in serum-free DMEM, pen/strep, 1-glutamine with/without AZD-103. The following day, the conditioned media (CM) was collected, spun at 1000×g and treated with complete protease inhibitors (in mg/ml 1 leupeptin, 1 pepstatin, 0.1 aprotinin, 40 EDTA, and 2 mM 1/10 phenantroline) for biochemistry experiments or cell culture compatible protease inhibitors (Sigma P1860 1:1000) for electrophysiology experiments. The CM was stored at −80° C. until sufficient volumes were collected to complete a “batch”—typically ˜300 ml. […] The resulting concentrate was pooled, aliquoted in 1 ml fractions, and stored at −80° C. […] Therefore, for any given set of experiments (i.e. dose response curve, time curve, etc), a single batch is prepared and compared to 7PA2 alone within that batch.
IP/Western blots: 8 ml of 7PA2 CM were precleared with […] of protein A agarose for 30 min. The beads were spun down, and […] of the polyclonal anti-Aβ antibody R1282 was added to the supernatant with an additional 40 μl of protein A agarose. These samples were nutated at 4° C. overnight. The beads were washed with a series of buffers 0.5 STEN (sodium chloride, tris, EDTA, NP-40), SDS STEN, STEN. 2× tricine sample buffer was added to the washed beads, which were then boiled, centrifuged, and the resulting supernatant loaded onto 10-20% tricine gels. The proteins were then transferred to nitrocellulose, and probed with the anti-Aβ antibody 6E10.
(A western blot detects proteins with antibodies after separation by electrophoresis.)

The test system of series [3] is cerebral amyloid plaques. Nature of the series: Cerebral amyloid burden (plaque number, area, size by immunohistochemistry). Type of series: in vivo, mouse. Particulars: TgCRND8 mice. The protocol:
Mice. […] This initial dosage was chosen based upon the dosage of myo-cyclohexanehexol (6-18 grams/day/adult or 86-257 mg/Kg/day) that is typically administered to human patients for various psychiatric disorders. […] A cohort of animals (n=10 mice per treatment arm) entered the study at five months of age, and outcomes were then analyzed after one month of treatment. The body weight, coat characteristics and in cage behaviour were monitored. Mannitol was used as a negative control for potential alterations in caloric intake. All experiments were performed according to the Canadian Council on Animal Care guidelines. Behavioural tests: Morris Water Maze testing was performed as previously described. After non-spatial pre-training, mice underwent place discrimination training for 5 days with 4-trials per day, followed by a cued visible platform to rule out general motivational, learning deficits and motor problems, and a probe trial to evaluate memory. […] Open field test for motor activity was preformed as described previously. Duration of walking, pausing and grooming were analyzed as indices of spontaneous locomotor activity. Sensorimotor function was examined with an Economex™ accelerating rotarod (Columbus Instruments, Columbus, Ohio), as described elsewhere. The rod was set to accelerate at a rate of 0.2 r.p.m./s, from an initial, constant speed of 5 r.p.m. Latency to fall was recorded in four daily trials, conducted at 30 min intervals. All mice were trained for seven days before testing. The test day performance score for each animal was obtained by summing its latency to fall over the four trials Cerebral amyloid burden. Brains were removed and one hemisphere was fixed in 4% paraformaldehyde and embedded in paraffin wax in the mid sagittal plane. To generate sets of systematic uniform random sections, 5 μm serial sections were collected across the entire hemisphere. Sets of sections at 50 μm intervals were used for analyses (10-14 sections/set). Plaques were identified after antigen retrieval with formic acid, and incubation with primary anti-Aβ antibody (Dako M-0872), followed by secondary antibody (Dako StreptABCcomplex/horseradish kit). End products were visualized with DAB and were counter-stained with luxol fast blue. Amyloid plaque burden was assessed with LecoIA-3001 image analysis software interfaced with Leica microscope and Hitachi KP-M1U CCD video camera. Openlab imaging software (Improvision, Lexington, Mass.) was then used to convert micrographs to binary images for plaque number and plaque area determinations. Vascular amyloid burden was defined as amyloid originating from or surrounding blood vessels and was analysed similarly. Plasma and Cerebral Aβ Content. Hemi-brain samples were homogenized in a buffered sucrose solution, followed by either 0.4% diethylamine/100 mM NaCl for soluble Aβ levels or cold formic acid for the isolation of total Aβ. After neutralization, the samples were diluted and analyzed for Aβ40 and Aβ42 using commercially available kits (BIOSOURCE International). Each hemisphere was analyzed in triplicate and the mean values±SEM reported. Western blot analyses were performed on all fractions using urea gels for Aβ species analyses. Aβ was detected using 6E10 (BIOSOURCE International) and Enhanced Chemiluminenscence (Amersham). Gliosis Quantitation. Five randomly selected, evenly spaced, sagittal sections were collected from paraformaldehyde-fixed and frozen hemispheres of treated and control mice. Sections were immunolabelled for astrocytes with anti-rat GFAP IgG2, (Dako; diluted 1:50) and for microglia with anti-rat CD68 IgG2b (Dako; 1:50).

In series [4] the test system is TgCRND8 mice. To be noted: mouse, in vivo. How it is done: Mice. […] This initial dosage was chosen based upon the dosage of myo-cyclohexanehexol (6-18 grams/day/adult or 86-257 mg/Kg/day) that is typically administered to human patients for various psychiatric disorders. […] A cohort of animals (n=10 mice per treatment arm) entered the study at five months of age, and outcomes were then analyzed after one month of treatment. The body weight, coat characteristics and in cage behaviour were monitored. Mannitol was used as a negative control for potential alterations in caloric intake. All experiments were performed according to the Canadian Council on Animal Care guidelines. Behavioural tests: Morris Water Maze testing was performed as previously described. […] Duration of walking, pausing and grooming were analyzed as indices of spontaneous locomotor activity. […] Latency to fall was recorded in four daily trials, conducted at 30 min intervals. […] Amyloid plaque burden was assessed with LecoIA-3001 image analysis software interfaced with Leica microscope and Hitachi KP-M1U CCD video camera. […] Vascular amyloid burden was defined as amyloid originating from or surrounding blood vessels and was analysed similarly. […] After neutralization, the samples were diluted and analyzed for Aβ40 and Aβ42 using commercially available kits (BIOSOURCE International). Each hemisphere was analyzed in triplicate and the mean values±SEM reported. […] Gliosis Quantitation. […]

Series [5] relates to 7PA2 cells. Type of series: cell-based, Chinese Hamster. The protocol:
as §1

Series [6] has as its system TgCRND8 mice. Description: Morris Water Maze spatial reference memory test in TgCRND8 mice. Type of series: in vivo, mouse.
Series [7] has as its target T1, Aβ42 (Homo sapiens, UniProt P05067).
T1 construct: from tissue; host or cells: hemi-brain homogenate of TgCRND8 transgenic mice
Description: Plasma Aβ42 levels in TgCRND8 mice. Type of series: in vivo, mouse. To be noted: TgCRND8 mice following 28 days of therapy at five months of age.

Setting [8] is: 1.25 μM applied to 7PA2 CM (post-cond).
[9] abbreviates: 28 day course at 5 months of age, vs untreated.
Setting [10] is: 28 days treatment, 6 months of age.

Sequence of Aβ oligomers (P05067 672-711 limits assumed): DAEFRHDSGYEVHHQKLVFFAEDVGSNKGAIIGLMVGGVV
T1 sequence (P05067 672-713 limits assumed): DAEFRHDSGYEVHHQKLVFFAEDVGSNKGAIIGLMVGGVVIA

On to “1,3,5/2,4,6-(scyllo-) cyclohexanehexol [Scyllo-cyclohexanehexol]”, for which, in series [1] (delayed treatment study), the “number of synaptophysin reactive boutons and cell bodies in the CA1 region” value is given as 2625±124 /100 μm^2; the “increase of synaptophysin reactive boutons and cell bodies” value turned out to be 150%. Also, in series [1] (prophylactic study group), the “number of synaptophysin reactive boutons and cell bodies in the CA1 region” value is given as 2384±232 /100 μm^2; the “increase of synaptophysin reactive boutons and cell bodies” value was 148%. Besides, in series [2] (setting [8]), the “Aβ dimer on Western blots” value was “unaffected” and the “Aβ trimer on Western blots” value is on record as “reduced the trimer”. Besides, the “Aβ dimer and trimer levels measured absolutely and normalized to monomer” value in series [2] (dose response, pre-cond and post-cond, all concentrations) is “appeared to reduce dimer and trimer levels”. In series [3] (setting [9]), the “percent area of the brain covered by plaques, reduction” value is on record as 14±0.5%; the plaque number reduction is listed as 13±0.3%; the plaque size reduction turned out to be 16±0.4%. In series [3] (setting [10]), the “Mean Plaque Size” value is 336 ± 6* μm^2, the “Total Plaque Area” value is listed as 420027 ± 14986* μm^2 and the “Total Plaque Count” value is on record as 1260 ± 27. Also, in series [4], the “grooming or activity in the open field test” value was “no effect on grooming or activity” and the “sensorimotor function (Rotarod), treated vs untreated TgCRND8 mice” value is listed as “no difference”. For the same substance, the “toxicity (7PA2 cells, APPs expression, LTP in CHO— conditions)” value in series [5] is recorded as “No direct evidence of AZD-103 toxicity was observed”. For the same substance, the “effects on cognition and pathology” value in series [6] (TgCRND8 mice, administered for 2 months, ending at 7 months of age) was “Sustained effects both on cognition and pathology were observed”. In series [6] (TgCRND8 mice, oral treatment for 28 days from 5 months of age, tested at 6 months), the “Spatial learning performance (Morris Water Maze) compared to untreated TgCRND8 littermates” value is reported as “significantly better behavioural performance compared to untreated TgCRND8 mice; also recorded: significantly better than untreated TgCRND8 littermates”. The “% time in target quadrant (probe trial, alternate measure)” value in series [6] (separate cohort of TgCRND8 mice, data not shown) is “not statistically different from non-Tg littermates”. Moreover, the “Plasma Aβ42 levels” value in series [7] was found to be 990 ± 73 pg/mL.
